One test addresses SPOP^MATH (Homo sapiens, UniProt O43791). Briefly: fluorescence polarization, displacement of FITC-puc_SBC1 peptide. It counts as binding. For orientation: Fluorescence polarisation rises when a labelled molecule tumbles more slowly, as on binding a larger partner.
The target of another test is T1, RNF130 (Homo sapiens, UniProt Q86XS8).
T1 sequence (Q86XS8 28-304): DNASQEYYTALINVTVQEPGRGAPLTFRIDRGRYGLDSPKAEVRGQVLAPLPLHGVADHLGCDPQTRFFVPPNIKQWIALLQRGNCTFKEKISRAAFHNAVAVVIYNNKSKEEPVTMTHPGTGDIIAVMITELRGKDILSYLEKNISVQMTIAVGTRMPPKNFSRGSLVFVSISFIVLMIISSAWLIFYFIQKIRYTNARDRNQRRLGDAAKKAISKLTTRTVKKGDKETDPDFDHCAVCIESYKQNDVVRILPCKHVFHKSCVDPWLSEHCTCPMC
Briefly: SPR, Biacore T200, amine-coupled RNF130 on CM5 chip. It counts as binding. For orientation: SPR reads the build-up and loss of mass on a sensor chip optically.

This is an account of results in paper doi:10.1101/2022.03.26.485909v4 (biorxiv, 2022).

Molecules are shown by their SMILES. pIC50, pKd: −log10 of the molar value.

Sequence of SPOP^MATH (O43791 28-166): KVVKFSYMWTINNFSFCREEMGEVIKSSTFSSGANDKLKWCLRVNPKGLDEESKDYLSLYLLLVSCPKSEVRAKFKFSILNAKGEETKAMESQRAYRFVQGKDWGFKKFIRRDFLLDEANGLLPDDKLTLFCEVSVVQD

The term pIC50 denotes the negative decadic logarithm of the IC50, by convention in mol/L. A low value points to a large IC50. At SPOP^MATH, `Cc1nnc(SCC2=C(C(=O)O)N3C(=O)C(NC(=O)c4ccc(COc5ccccc5Cl)o4)C3SC2)s1` (stereo not drawn) [221C7] showed a pIC50 of 5.37.

`CC(=O)OCC1=C(C(=O)O)N2C(=O)C(NC(=O)c3ccc(COc4ccc(Br)cc4Cl)o3)C2SC1` (stereo not drawn) [230D7, 3-(acetoxymethyl)-7-(5-((4-bromo-2-chlorophenoxy)methyl)furan-2-carboxamido)-8-oxo-5-thia-1-azabicyclo[4.2.0]oct-2-ene-2-carboxylic acid] had a pIC50 on SPOP^MATH of 5.06.

As usually defined, the pKd is −log10 of the Kd, conventionally taken in molar units. As for `CS(=O)(=O)c1nnc(CN2C3C=C(c4ccccc4)CC2CC3)s1` (stereo not drawn) [iRNF130-63], the pKd on RNF130 was 5.03.
